Tests used:
Type in all cases: biochemical
murine iNOS = target: T1, murine iNOS (Mus musculus, UniProt P29477); experiment: NOS enzyme inhibitory assay (hemoglobin capture), iNOS; conditions: Table 1a; for Ki: apparent Ki calculated from IC50, Km […], read-out: calc. Ki iNOS; for IC50: murine iNOS, 10 μM L-arginine
T1 construct: made in house; host or cells: E. coli (plasmid pCWiNOS)
Source text: (§1) All of the NOS isoforms used were recombinant enzymes overexpressed in E. coli from different sources. Nitric oxide formation from NOS was monitored by the hemoglobin capture assay as described in the literature.
Enzyme inhibitory assay. All of the NOS isoforms used are recombinant enzymes overexpressed in E. coli from different sources.
iNOS expression: An overnight culture of pCWiNOS was used to inoculate (1:100) larger cultures of Terrific Broth media (12 g/L tryptone, 24 g/L yeast extract, 4 mL/L glycerol, 17 mM KH2PO4, and 72 mM K2HPO4) containing 50 μg/mL ampicillin and 34 μg/mL chloramphenicol at 37° C. At an OD600 of ˜0.5, the culture was cooled to 25° C. and induced by the addition of 1 mM IPTG (final concentration). After approximately 24 h of growth at 25° C., the cells were pelleted at 5300×g, transferred to 50 mL conical tubes, and stored at −80° C.
iNOS purification: Cell pellets from 1.0 L of culture were resuspended in sonication buffer (50 mM Hepes, pH 7.4, 10% glycerol, 10 μg/mL benzamidine, 5 μg/mL leupeptin, 0.2 mM of PMSF, and 1 μg/mL each of pepstatin, chymostatin, and antipain) and lysed by sonication. Centrifugation for 20 min at 13000×g yielded supernatant which contained iNOS active enzyme. iNOS supernatant was loaded onto 1 g of a 2′,5′-ADP-Sepharose 4B resin column. The column was then washed with 20 ml iNOS purification buffer (10 mM K2HPO4, 10% glycerol, 0.5 mM L-arginine, pH 7.4) and 10 μM BH4. Inducible NOS was eluted with 30 ml iNOS purification buffer supplemented with 10 mM 2′(3′)-AMP, 10 μM BH4, and 0.3 M NaCl. The eluent was concentrated to 5 ml by ultrafiltration. The above concentration operation was repeated three times more with 10 ml Hepes buffer supplemented with 10 μM BH4, to give purified inducible NOS.
(§2) Nitric oxide formation from NOS was monitored by the hemoglobin capture assay as described previously. (Hevel, J. M.; Marletta, M. A. Nitric Oxide Synthase Assays. Methods Enzymol. 1994, […], 250-258).
(§3) The selectivity of an inhibitor is defined as the ratio of the respective Ki values.

rat nNOS = target: T2, rat nNOS (Rattus norvegicus, UniProt P29476); experiment: NOS enzyme inhibitory assay (hemoglobin capture), nNOS; conditions: Table 1a; for Selectivity n/i: Ki(iNOS)/Ki(nNOS); for Ki: apparent Ki calculated from IC50, Km […], read-out: calc. Ki nNOS; for IC50: rat nNOS, 10 μM L-arginine
T2 construct: made in house; host or cells: E. coli (plasmid pCWnNOS)
Description: as §1
After approximately 48 h of post-induction incubation in the dark at 25° C. the cells were pelleted at 5300×g, transferred to 50 mL conical tubes, and stored at −80° C.
nNOS purification: Cell pellets from 2.0 L of culture were resuspended in sonication Buffer A (50 mM Tris Base Buffer, pH 8.0, 10% glycerol), 2 mg/ml lysozyme. 0.5 mM L-arginine. 1 mM EDTA, 0.1 mM PMSF, 1 µg/ml antipain, and 1 μM each of leupeptin, […], and […]) and lysed by sonication. Centrifugation for 1 h at 100000×g yielded supernatant which contained nNOS active enzyme. The supernatant was brought to 2 mM CaCl2 and the protein was loaded onto a 15 ml calmodulin-Sepharose column equilibrated with Buffer A containing 2 mM CaCl2. The column was washed with 100 ml Buffer B (50 mM Hepes, 5 mM DTT, and […]) containing 2 mM CaCl2, 0.5 mM L-arginine, and 10 μM BH4, and eluted with 30 ml Buffer B supplemented with 0.3 M NaCl, 5 mM EGTA, 0.5 mM L-arginine, and 10 μM BH4. The protein was then loaded onto a 5 ml 2′,5′-ADP-Sepharose column equilibrated with Buffer B supplemented with 0.3 M NaCl, 0.5 mM L-arginine, and 10 μM BH4. The column was washed with 25 ml Buffer B containing 0.5 mM L-arginine and 10 μM BH4, and then 25 ml of Buffer B only supplemented with 10 μM BH4 (without L-arginine). Neuronal NOS was eluted with 20 ml Buffer B supplemented with 10 mM 2′(3′)-AMP, 10 μM BH4 and 0.3 M NaCl. The 20 ml eluent was then concentrated to 5 ml by ultrafiltration. The above concentration operation was repeated twice more with 10 ml Buffer B supplemented with 10 µM BH4 to give the purified neuronal NOS.
Nitric oxide formation from NOS was monitored by the hemoglobin capture assay as described previously.
as §3

bovine eNOS = target: T3, bovine eNOS (Bos taurus, UniProt P29473); experiment: NOS enzyme inhibitory assay (hemoglobin capture), eNOS; conditions: Table 1b; read-out: Ki eNOS
T3 construct: made in house; host or cells: E. coli (plasmid Bov-eNOSpCW)
Description: as §1
Expression of bovine eNOS: An overnight culture of Bov-eNOSpCW was used to inoculate 0.5 liter (in a 2.8-liter Fernbach flask) of modified TB (20 g of yeast extract, 10 g of bacto-tryptone, 2.65 g of KH2PO4, 4.33 g of Na2HPO4 and 4 ml of glycerol per liter) containing ampicillin ([…]) and chloramphenicol ([…]). The cultures were grown to an OD600 of z0.8 at 22° C. (200 rpm) and induced with 0.5 mM IPTG. One hour before IPTG induction, d-aminolevulinic acid (0.5 mM final) was added and, at the time of IPTG induction, riboflavin ([…]) and ATP (1 mM final) were also added. After induction, the flasks were kept in the dark at 22° C. (200 rpm). The cells were harvested 48 h after induction, and the cell pellet was frozen at −80° C. until purification was carried out.
Purification of bovine eNOS. The purification was typically carried out with eNOS from 2 liters of E. coli culture. The eNOS protein was purified using a modification of the published protocol for nNOS (14). The cells were resuspended in buffer C [50 mM Tris-Cl, pH 7.8, 1 mM EDTA, 1 mM DTT, 10% glycerol (v/v), 150 mM NaCl, 0.1 mM phenylmethylsulfonyl fluoride, […]], lysed by pulsed sonication and then centrifuged to sediment the cell debris. The supernatant was applied to a 2′,5′-ADP Sepharose 4B column equilibrated in buffer D [50 mM Tris-Cl, pH 7.8, 0.1 mM EDTA, 0.1 mM dithiothreitol, 150 mM NaCl, 10% glycerol (v/v)]. The column was washed with 20 column volumes of buffer B and again with 20 column volumes of buffer B containing 600 mM NaCl. Finally, protein was eluted with buffer B containing 600 mM NaCl and 5 mM 2′-AMP. The fractions were screened for absorption in the Soret region (A400) and hemoprotein-containing fractions were pooled and concentrated (Centriprep 50, Amicon). Repeated dilution/concentration [50 mM Tris-Cl, pH 7.8, 0.1 mM EDTA, 0.1 mM dithiothreitol, 10% glycerol (vol/vol)] was used to reach a final concentration of 150 mM NaCl and commensurately reduce the 2′-AMP content. […] The purified eNOS is stored in the presence of 1 mM L-arginine.
eNOS washing: eNOS contains a significant amount of L-arginine, which will interfere with the enzyme assay. The L-arginine can be removed by several dilution and concentration steps using an Amico concentrator. The dilution buffer is 10 ml Tris-HCl 50 mM containing 0.1 mM EDTA, 400 mM NaCl, 10% glycerol and 1 mM beta-mercaptoethanol. The above dilution and concentration operation was repeated three times to give purified eNOS.
as §2, §3

SMILES	Ki (murine iNOS)	IC50 (murine iNOS)	Selectivity n/i (rat nNOS)	Ki (rat nNOS)	IC50 (rat nNOS)	Ki (bovine eNOS)
Cl.Cl.Nc1cccc(CC2CN(Cc3ccccc3)CC2O)n1 (racemic) [Compound P-1]	919 µM	2030 µM	11.71	78.5 µM	682 µM	
Cl.Cl.Cl.Nc1cccc(C[C@H]2CN(Cc3ccccc3)C[C@@H]2NCCCc2ccccc2)n1 (racemic) [Compound P-2]	60.1 µM	132 µM	4.3	14 µM	122 µM	
Cl.Cl.Cl.Nc1cccc(C[C@H]2CN(Cc3ccccc3)C[C@@H]2NCCCO)n1 (racemic) [Compound P-3]	1750 µM	3860 µM	9.19	190 µM	1650 µM	
Cl.Cl.Cl.Nc1cccc(C[C@H]2CN(Cc3ccccc3)C[C@H]2NCCCc2ccccc2)n1 (racemic) [Compound P-4]	609 µM	1340 µM	12.71	47.9 µM	417 µM	
Cl.Cl.Cl.Nc1cccc(CC2CN(Cc3ccccc3)CC2NCCCO)n1 (racemic) [Compound P-5]	2520 µM	5560 µM	8.27	305 µM	2650 µM	
Cl.Cl.Cl.NCCN1C[C@H](Cc2cccc(N)n2)[C@@H](O)C1 (racemic) [Compound P-6]	105 µM	231 µM	8.41	12.4 µM	108 µM	
Cl.Cl.Cl.Cl.NCCN1CC(Cc2cccc(N)n2)C(NCCCc2ccccc2)C1 (racemic) [Compound P-7]	438 µM	965 µM	109.99	3.98 µM	34.6 µM	
NCCN1CC(Cc2cccc(N)n2)C(NCCCO)C1 (racemic) [Compound P-8]	652 µM	1440 µM				
Cl.Cl.Cl.Cl.NCCN1CC(Cc2cccc(N)n2)C(NCCCc2ccccc2)C1 (racemic) [Compound P-9]	295 µM	649 µM	10.28	28.6 µM	249 µM	
NCCN1C[C@H](Cc2cccc(N)n2)[C@H](NCCCO)C1 (racemic) [Compound P-10]	1250 µM	2760 µM				
Nc1cccc(CC2CNCC2NCCCO)n1 (racemic) [Compound P-13]	234 µM	515 µM				
Nc1cccc(C[C@H]2CNC[C@H]2NCCCO)n1 (racemic) [Compound P-28]	143 µM	315 µM				
Cl.Cl.Cl.Cl.NCCNC1CC(N)CC1Cc1cccc(N)n1 (racemic) [Compound P-44]	51.9 µM	114 µM	21.02	2.47 µM	21.5 µM	
Cl.Cl.Cl.Cl.NCCNC1CC(N)CC1Cc1cccc(N)n1 (racemic) [Compound P-45]	71.5 µM	158 µM	15.51	4.61 µM	40.1 µM	
Cc1cc(N)nc(CC2CNCC2NCCNCc2ccc(C(F)(F)F)cc2)c1.Cl.Cl.Cl.Cl (racemic) [Compound P-56]						61.2 µM
Cl.Cl.Cl.Cl.Nc1cccc(CC2CNCC2NCC2CCCN2)n1 (stereo not drawn) [Compound P-23]	104 µM	229 µM	9.30	11.2 µM	96.9 µM	
Cl.Cl.Cl.Cl.Nc1cccc(CC2CNCC2NCC2CCCN2)n1 (stereo not drawn) [Compound P-24]	306 µM	674 µM	21.15	14.5 µM	126 µM	
Cl.Cl.Cl.Cl.Nc1cccc(CC2CNCC2NCC2CCCN2)n1 (stereo not drawn) [Compound P-25]	18.5 µM	40.8 µM	7.58	2.44 µM	21.2 µM	
Cl.Cl.Cl.Cl.Nc1cccc(C[C@@H]2CNC[C@H]2NC[C@H]2CCCN2)n1 [Compound P-26]	170 µM	375 µM	13.82	12.3 µM	107 µM	
Cl.Cl.Cl.Cl.Nc1cccc(CC2CNCC2NCC2CCCN2)n1 (stereo not drawn) [Compound P-40]	82.4 µM	182 µM	23.95	3.44 µM	29.9 µM	
Cl.Cl.Cl.Cl.Nc1cccc(C[C@@H]2CNC[C@@H]2NC[C@@H]2CCCN2)n1 [Compound P-41]	26.4 µM	58.3 µM	4.67	5.66 µM	49.2 µM	
Cl.Cl.Cl.Cl.Nc1cccc(C[C@H]2CNC[C@H]2NC[C@H]2CCCN2)n1 [Compound P-42]	70 µM	154 µM	31.97	2.19 µM	19 µM	
Cl.Cl.Cl.Cl.Nc1cccc(C[C@@H]2CNC[C@@H]2NC[C@H]2CCCN2)n1 [Compound P-43]	42 µM	92.5 µM	9.22	4.55 µM	39.5 µM	
